Reference: patent publication US5518735A, “Meta-substituted phenylalanine derivatives” (priority 1990, dated 1996)
Counter-ions that a name gives are not always drawn. Each block holds one molecule with its values, some of them ahead of it.

Tests used:
thrombin = thrombin (Bos taurus, UniProt P00735); test: Inhibition of thrombin (dissociation constant Ki); format: biochemical
factor Xa = factor Xa (Bos taurus, UniProt P00743); test: Inhibition of factor Xa (dissociation constant Ki); format: biochemical; conditions: Tables 19-25; read-out: Ki, Factor Xa
factor XIIa = target: T1, factor XIIa (Homo sapiens, UniProt P00748); test: Inhibition of factor XIIa (Ki); format: biochemical; conditions: Table 26
T1 construct: glandular kallikrein, factor XIIa and plasma kallikrein
T1 sequence (P00748 373-615 limits assumed): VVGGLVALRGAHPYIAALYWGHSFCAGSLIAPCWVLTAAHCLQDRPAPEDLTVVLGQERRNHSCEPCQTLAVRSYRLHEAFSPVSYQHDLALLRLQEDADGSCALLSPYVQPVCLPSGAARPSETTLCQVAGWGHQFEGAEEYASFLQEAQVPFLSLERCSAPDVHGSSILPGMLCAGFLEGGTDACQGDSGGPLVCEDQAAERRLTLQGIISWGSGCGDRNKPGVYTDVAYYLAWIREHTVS

glandular kallikrein = glandular kallikrein (Sus scrofa, UniProt P00752); test: Inhibition of glandular kallikrein (Ki); format: biochemical; conditions: Table 26; read-out: Ki, Gland. Kallikrein
tPA = tPA (Homo sapiens, UniProt P00750); test: Inhibition of tPA (Ki); format: biochemical; conditions: Table 26
plasma kallikrein = target: T2, plasma kallikrein (Homo sapiens, UniProt P03952); test: Inhibition of plasma kallikrein (Ki); format: biochemical; conditions: Table 26
T2 construct: glandular kallikrein, factor XIIa and plasma kallikrein

trypsin = target: T3, trypsin (Bos taurus, UniProt P00760); test: Inhibition of trypsin (Ki); format: biochemical; conditions: Table 26
T3 sequence (P00760 24-246): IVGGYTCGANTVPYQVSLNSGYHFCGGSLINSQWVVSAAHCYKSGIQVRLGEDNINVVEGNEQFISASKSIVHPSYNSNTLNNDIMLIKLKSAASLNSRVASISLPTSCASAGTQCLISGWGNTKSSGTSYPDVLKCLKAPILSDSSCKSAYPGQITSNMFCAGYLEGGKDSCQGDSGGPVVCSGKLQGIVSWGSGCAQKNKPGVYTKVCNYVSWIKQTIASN

plasmin = target: T4, plasmin (Homo sapiens, UniProt P00747); test: Inhibition of plasmin (Ki); format: biochemical; conditions: Table 26
T4 construct: trypsin and the related enzymes thrombin, plasmin, factor Xa, tPA

[1] = Plasma concentration in rats after subcutaneous administration (HPLC); conditions: rat
Description: (§1) For the pharmacokinetic characterization, the plasma concentration of selected derivatives was determined in rats after intravenous (i.v.), subcutaneous (s.c.) and peroral (p.o.) application according to the following three-step procedure:
(§2) 1. A physiological NaCl solution of the substance to be tested was submitted to high pressure liquid chromatography (HPLC) in order to determine its characteristic substance-specific retention time with the chosen test conditions.
(§3) 2. The substance to be tested was diluted in vitro in rat plasma. This solution was also submitted to HPLC to see whether the characteristic peak of the substance once again appeared at the substance-specific retention time.
(§4) 3. […] Blood samples were taken at time intervals of 15 minutes, from which plasma samples were prepared by centrifugation; those samples were also submitted to HPLC to see whether the characteristic peak of the substance appeared again at the substance-specific retention time.

in vivo = conditions: mouse
[2] = Plasma concentration in rats after oral administration (HPLC); conditions: rat, plasma, po, 100 mg/kg
[3] = Plasma concentration in rats after intravenous administration (HPLC); conditions: for Concentration in plasma: i.v. 1 mg/kg
Description: as §1, §2, §3, §4

Sequence of glandular kallikrein (P00752 8-246): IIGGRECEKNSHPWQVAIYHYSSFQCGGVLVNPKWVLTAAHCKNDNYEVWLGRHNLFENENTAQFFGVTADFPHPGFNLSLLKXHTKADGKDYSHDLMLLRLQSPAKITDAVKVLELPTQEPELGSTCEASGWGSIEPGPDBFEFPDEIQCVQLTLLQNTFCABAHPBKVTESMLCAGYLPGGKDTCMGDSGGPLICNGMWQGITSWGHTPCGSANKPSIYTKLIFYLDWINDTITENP
T4 sequence (P00747 581-810 limits assumed): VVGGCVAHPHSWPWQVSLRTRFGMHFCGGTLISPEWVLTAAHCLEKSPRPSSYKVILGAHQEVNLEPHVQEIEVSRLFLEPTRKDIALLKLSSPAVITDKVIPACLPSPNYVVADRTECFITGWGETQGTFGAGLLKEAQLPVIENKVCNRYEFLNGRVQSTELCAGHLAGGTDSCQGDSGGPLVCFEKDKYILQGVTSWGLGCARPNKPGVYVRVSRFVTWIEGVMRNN
T4 sequence (P00747 97-580 partner limits assumed): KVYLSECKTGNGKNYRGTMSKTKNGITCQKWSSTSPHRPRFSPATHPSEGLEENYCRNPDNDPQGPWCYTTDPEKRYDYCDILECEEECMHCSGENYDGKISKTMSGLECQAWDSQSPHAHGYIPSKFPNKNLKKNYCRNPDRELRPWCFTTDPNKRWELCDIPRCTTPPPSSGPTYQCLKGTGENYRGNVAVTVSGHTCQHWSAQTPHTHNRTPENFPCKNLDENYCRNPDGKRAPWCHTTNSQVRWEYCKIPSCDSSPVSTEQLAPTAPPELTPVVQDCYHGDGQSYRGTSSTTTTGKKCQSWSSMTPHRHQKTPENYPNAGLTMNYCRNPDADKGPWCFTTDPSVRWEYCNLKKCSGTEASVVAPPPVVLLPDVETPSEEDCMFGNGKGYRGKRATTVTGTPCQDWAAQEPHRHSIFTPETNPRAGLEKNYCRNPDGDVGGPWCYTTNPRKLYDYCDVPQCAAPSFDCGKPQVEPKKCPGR
T2 sequence (P03952 391-638 limits assumed, species assumed): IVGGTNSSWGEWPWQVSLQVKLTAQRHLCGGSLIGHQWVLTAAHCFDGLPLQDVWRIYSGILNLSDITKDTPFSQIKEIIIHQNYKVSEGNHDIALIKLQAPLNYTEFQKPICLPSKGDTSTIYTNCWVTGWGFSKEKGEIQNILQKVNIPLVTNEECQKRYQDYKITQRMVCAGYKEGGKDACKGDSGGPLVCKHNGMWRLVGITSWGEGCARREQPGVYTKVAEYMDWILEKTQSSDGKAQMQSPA
T2 sequence (P03952 20-390 partner limits assumed, species assumed): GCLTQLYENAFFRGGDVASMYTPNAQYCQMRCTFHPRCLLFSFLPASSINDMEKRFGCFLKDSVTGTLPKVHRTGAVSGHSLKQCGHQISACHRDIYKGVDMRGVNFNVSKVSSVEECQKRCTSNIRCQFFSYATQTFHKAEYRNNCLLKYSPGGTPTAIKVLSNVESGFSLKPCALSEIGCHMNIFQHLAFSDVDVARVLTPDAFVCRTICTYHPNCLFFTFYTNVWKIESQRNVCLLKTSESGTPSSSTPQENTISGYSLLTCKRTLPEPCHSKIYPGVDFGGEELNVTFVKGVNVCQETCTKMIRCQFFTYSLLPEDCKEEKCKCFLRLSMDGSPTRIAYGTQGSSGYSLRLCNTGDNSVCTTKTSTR
Sequence of factor Xa (P00743 234-492 limits assumed): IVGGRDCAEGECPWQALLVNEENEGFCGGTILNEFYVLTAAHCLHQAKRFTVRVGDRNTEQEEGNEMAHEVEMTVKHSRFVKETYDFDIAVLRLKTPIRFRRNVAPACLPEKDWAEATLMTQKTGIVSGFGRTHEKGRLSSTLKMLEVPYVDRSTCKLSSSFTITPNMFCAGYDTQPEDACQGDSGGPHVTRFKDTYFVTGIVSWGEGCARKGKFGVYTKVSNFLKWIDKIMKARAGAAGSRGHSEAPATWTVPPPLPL
Sequence of factor Xa (P00743 41-180 partner limits assumed): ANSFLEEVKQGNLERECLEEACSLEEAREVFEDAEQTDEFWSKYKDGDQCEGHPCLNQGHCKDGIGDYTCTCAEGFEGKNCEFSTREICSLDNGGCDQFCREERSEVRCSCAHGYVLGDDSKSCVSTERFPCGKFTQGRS
Sequence of tPA (P00750 36-562): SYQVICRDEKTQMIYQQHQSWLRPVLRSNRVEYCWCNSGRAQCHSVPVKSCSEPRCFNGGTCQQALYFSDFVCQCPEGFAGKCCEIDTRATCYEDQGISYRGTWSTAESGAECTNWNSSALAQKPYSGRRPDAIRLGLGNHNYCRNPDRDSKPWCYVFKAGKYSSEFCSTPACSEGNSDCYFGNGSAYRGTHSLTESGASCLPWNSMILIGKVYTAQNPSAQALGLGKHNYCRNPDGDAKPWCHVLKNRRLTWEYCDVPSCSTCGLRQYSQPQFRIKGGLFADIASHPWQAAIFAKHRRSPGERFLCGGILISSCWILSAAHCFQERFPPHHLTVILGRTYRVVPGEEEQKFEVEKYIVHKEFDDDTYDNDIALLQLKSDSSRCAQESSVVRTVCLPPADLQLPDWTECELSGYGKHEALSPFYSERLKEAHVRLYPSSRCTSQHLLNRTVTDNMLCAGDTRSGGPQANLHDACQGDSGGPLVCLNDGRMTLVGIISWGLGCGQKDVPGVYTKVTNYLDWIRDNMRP

Compound: N=C(N)c1cccc(CC(NS(=O)(=O)c2ccc3ccccc3c2)C(=O)N2CCCCC2C(=O)O)c1 (racemic) [Compound 83]
- Ki (thrombin): 0.26 µM
- Ki (factor Xa): 38 µM
- Ki (factor XIIa): > 1000 µM
- Ki (glandular kallikrein): ~1000 µM
- Ki (tPA): 205 µM
- Ki (plasma kallikrein): 32 µM
- concentration at 0.25 h ([1]; plasma, sc, 5 mg/kg): 402 ng/mL
- concentration at 0.5 h ([1]; plasma, sc, 5 mg/kg): 620 ng/mL
- concentration at 0.75 h ([1]; plasma, sc, 5 mg/kg): 626 ng/mL
- concentration at 1 h ([1]; plasma, sc, 5 mg/kg): 568 ng/mL
- concentration at 1.5 h ([1]; plasma, sc, 5 mg/kg): 467 ng/mL
- concentration at 2 h ([1]; plasma, sc, 5 mg/kg): 415 ng/mL
- concentration at 3 h ([1]; plasma, sc, 5 mg/kg): 314 ng/mL
- concentration at 4 h ([1]; plasma, sc, 5 mg/kg): 297 ng/mL
- LD50 at 168 h (in vivo; iv): 272 mg/kg
- LD50 at 168 h (in vivo; po): > 3000 mg/kg
- concentration at 0.25 h [2]: 133 ng/mL
- concentration at 0.5 h [2]: 79 ng/mL
- concentration at 1 h [2]: 50 ng/mL
- concentration at 1.5 h [2]: 37 ng/mL
- concentration at 2 h [2]: 38 ng/mL
- concentration at 3 h [2]: 25 ng/mL
- concentration at 4 h [2]: 23 ng/mL
- Ki (plasmin): 34 µM
- pharmacokinetic properties ([3]; in words, compared with NAPAP): improved pharmacokinetic properties
- Concentration in plasma ([3]; rat, 120 min): 0 ng/mL
- Concentration in plasma ([3]; rat, 180 min): 0 ng/mL
- concentration at 2 min ([3]; rat, plasma, iv, 1 mg/kg): 1900 ng/mL
- concentration at 5 min ([3]; rat, plasma, iv, 1 mg/kg): 928 ng/mL
- concentration at 10 min ([3]; rat, plasma, iv, 1 mg/kg): 496 ng/mL
- concentration at 0.25 h ([3]; rat, plasma, iv, 1 mg/kg): 243 ng/mL
- concentration at 0.5 h ([3]; rat, plasma, iv, 1 mg/kg): 150 ng/mL
- concentration at 0.75 h ([3]; rat, plasma, iv, 1 mg/kg): 115 ng/mL
- concentration at 1 h ([3]; rat, plasma, iv, 1 mg/kg): 85 ng/mL
- concentration at 1.5 h ([3]; rat, plasma, iv, 1 mg/kg): 45 ng/mL

Compound: COC(=O)[C@H]1CCCN1C(=O)[C@H](Cc1cccc(C(=N)N)c1)NS(=O)(=O)c1ccc2ccccc2c1 [Compound 124, N-α-(2-Naphthylsulfonyl)-3-amidino-(L)-phenylalanyl-(D)-proline-methyl ester hydrochloride]
- Ki (thrombin): 0.27 µM
- Ki (factor Xa): 104 µM
- Ki (factor XIIa): 600 µM
- Ki (glandular kallikrein): > 1000 µM
- Ki (tPA): 225 µM
- Ki (plasma kallikrein): 29 µM
- LD50 at 168 h (in vivo; iv): 80 mg/kg
- LD50 at 168 h (in vivo; po): > 3000 mg/kg
- Ki (trypsin): 3.4 µM
- Ki (plasmin): 11 µM

Compound: N=C(N)c1cccc(CC(NS(=O)(=O)c2ccc3ccccc3c2)C(=O)N2Cc3ccccc3CC2C(=O)O)c1 (racemic) [Compound 134, N-α-(2-Naphtylsulfonyl)-3-amidino-(D,L)-phenylalanyl-1,2,3,4-tetrahydroisoquinoline-3-carboxylic acid]
- Ki (thrombin): 0.018 µM
- Ki (factor Xa): 42 µM
- Ki (factor XIIa): > 1000 µM
- Ki (glandular kallikrein): 390 µM
- Ki (tPA): > 1000 µM
- Ki (plasma kallikrein): 1.5 µM
- concentration at 0.5 h ([1]; plasma, sc, 5 mg/kg): 35 ng/mL
- concentration at 0.75 h ([1]; plasma, sc, 5 mg/kg): 72 ng/mL
- concentration at 1 h ([1]; plasma, sc, 5 mg/kg): 79 ng/mL
- concentration at 1.5 h ([1]; plasma, sc, 5 mg/kg): 92 ng/mL
- concentration at 2 h ([1]; plasma, sc, 5 mg/kg): 145 ng/mL
- concentration at 3 h ([1]; plasma, sc, 5 mg/kg): 285 ng/mL
- concentration at 4 h ([1]; plasma, sc, 5 mg/kg): 268 ng/mL
- concentration at 5 h ([1]; plasma, sc, 5 mg/kg): 248 ng/mL
- Concentration in plasma ([1]; s.c. 5 mg/kg, 15 min): 0 ng/mL
- LD50 at 168 h (in vivo; iv): 29 mg/kg
- LD50 at 168 h (in vivo; po): > 3000 mg/kg
- concentration at 0.25 h [2]: 188 ng/mL
- concentration at 0.5 h [2]: 260 ng/mL
- concentration at 0.75 h [2]: 297 ng/mL
- concentration at 1 h [2]: 260 ng/mL
- concentration at 2 h [2]: 234 ng/mL
- concentration at 3 h [2]: 236 ng/mL
- concentration at 4 h [2]: 210 ng/mL
- concentration at 5 h [2]: 157 ng/mL
- concentration at 6 h [2]: 86 ng/mL
- Ki (plasmin): 0.67 µM
- Concentration in plasma ([3]; rat, 90 min): 0 ng/mL
- concentration at 2 min ([3]; rat, plasma, iv, 1 mg/kg): 4440 ng/mL
- concentration at 5 min ([3]; rat, plasma, iv, 1 mg/kg): 1680 ng/mL
- concentration at 10 min ([3]; rat, plasma, iv, 1 mg/kg): 775 ng/mL
- concentration at 0.25 h ([3]; rat, plasma, iv, 1 mg/kg): 621 ng/mL
- concentration at 0.5 h ([3]; rat, plasma, iv, 1 mg/kg): 79 ng/mL
- concentration at 0.75 h ([3]; rat, plasma, iv, 1 mg/kg): 78 ng/mL
- concentration at 1 h ([3]; rat, plasma, iv, 1 mg/kg): 10 ng/mL

Other lines, results leading:

- Ki (thrombin): 1.9 µM
- Ki (factor Xa): 500 µM
- Ki (factor XIIa): < 1000 µM
- Ki (glandular kallikrein): 76 µM
- Ki (tPA): > 1000 µM
- Ki (plasma kallikrein): > 1000 µM
- Ki (trypsin): 3.4 µM
- Ki (plasmin): 27 µM
Compound: CC1CCN(C(=O)C(Cc2cccc(CN)c2)NS(=O)(=O)c2ccc3ccccc3c2)CC1 (racemic) [Compound 182, N-α-(2-Naphthylsulfonyl)-3-aminomethyl-(D,L)-phenylalanyl-4-methylpiperidide]

- Ki (thrombin): 0.28 µM
- Ki (factor Xa): 2.5 µM
- Ki (factor XIIa): 190 µM
- Ki (glandular kallikrein): 210 µM
- Ki (tPA): 120 µM
- Ki (plasma kallikrein): 18 µM
- Ki (plasmin): 5.2 µM
Compound: COC(=O)C(Cc1cccc(C(=N)N)c1)NS(=O)(=O)c1ccc2ccccc2c1 (racemic) [Compound 7]

- Ki (thrombin): 0.12 µM
- Ki (factor Xa): 96 µM
- Ki (factor XIIa): > 1000 µM
- Ki (glandular kallikrein): > 1000 µM
- Ki (tPA): 470 µM
- Ki (plasma kallikrein): 84 µM
- Ki (trypsin): 1.2 µM
- Ki (plasmin): 42 µM
Compound: CC1CCN(C(=O)C(Cc2cccc(C(=N)N)c2)NS(=O)(=O)c2ccc3ccccc3c2)C(C(=O)O)C1 (racemic) [Compound 86]

- Ki (thrombin): 3.6 µM
- Ki (factor Xa): 25 µM
- Ki (factor XIIa): 350 µM
- Ki (glandular kallikrein): > 1000 µM
- Ki (tPA): 340 µM
- Ki (plasma kallikrein): 68 µM
- Ki (trypsin): 46 µM
- Ki (plasmin): 46 µM
Compound: CC1CCN(C(=O)C(Cc2cccc(C(=N)N)c2)NC(=O)CNS(=O)(=O)c2ccc3ccccc3c2)CC1 (racemic) [Compound 156, N-α-(2-Naphthylsulfonyl)-glycyl-3-amidino-(D,L)-phenylalanine-4-methylpiperidide]
